# Experimental data from patent US20210087238A1, “CELL PENETRATING PEPTIDES AND RELATED COMPOSITIONS AND METHODS” (Phylogica Limited, priority 2017, published 2021).
# Like-named read-outs stand apart in the source and are kept apart here. Where a SMILES comes first, the peptide text is derived from it. Where no end group is shown, it is not given here. [ ]: non-standard residue; d: D form.
# Assays:
# T47D cells [1] = test: Cell viability assay of FPP1.1_SpyT variants conjugated to SpyC_PAP, resazurin reduction; type: cell-based; settings: 48 h incubation, FIG. 5
# Description: Cell viability assay on T47D cells of FPP1.1_SpyT peptide compared to retro-inverso (RI) and dimerised variants conjugated to the SpyCatcher_PAP (SpyC_PAP) mitochondriotoxic cargo. T47D cells were seeded at 6×10^3 cells per well and treated the following day with FPP-Toxic cargo conjugates. Following 48 h incubation cell viability was assessed by resazurin reduction potential.
# (§1) With the exception of SpyC PAS proteins, conjugations were set up at a SpyCatcher:SpyTag ratio of 1:1.25, with a 40 μM final concentration for the SpyCatcher moiety. SpyC proteins and SpyTag peptides were incubated for 2 h at 22° C. with gentle mixing, and then left at 4° C. overnight. Conjugation efficiencies were analyzed on 4-16% SDS-PAGE gels stained with Gel Code Blue Reagent (Thermo Fisher Scientific). SpyC_PAS proteins were conjugated with SpyTag peptides at ratio 1:1.1, mixed and incubated at room temperature for 30 mins before being stored overnight at 4° C.
# (§2) All assays followed manufacturer's instructions.
# CHO-K1 cells [2] = settings: up to 50 μM; for cytotoxicity of peptides alone, cell viability: 24 h and 48 h incubation
# Description: Cell viability effect on CHO-K1 cells of Phylomer™ CPPs and variants compared to the canonical CPPs TAT and Penetratin following 24 h (A) and 48 h (B) incubation with peptides. Cell viability was assessed by resazurin reduction potential. Membrane integrity of CHO-K1 cells were assessed by LDH release following 2 h (C) and 24 h (D) incubation with peptides. […] Results are representative of 3 independent experiments. Error bars represent standard deviation from the mean of triplicate samples.
# (§3) Cells in were seeded at 2000-6000 cells/well, depending on cell line, in 96-well plates (PAP assays: CHO-K1, 3000 cells/well; peptide cytotoxicity assays: CHO-K1, 5000 cells/well; Bouganin assay: CHO-K1 and CHO-K1 EGFR, 2500 cells/well; ^DPMIα assays: T47D, 5000 cells/well; Omomyc assays: all cell lines, 5000 cells/well). In brief, adherent cells were allowed to attach for 24 h prior to addition of treatments whereas suspension cell lines were treated immediately following seeding. Following 2-48 h incubations with treatments, cell viability was measure by a variety of methods. Membrane integrity was assessed by the release of LDH into the media via the CytoTox-ONE reagent (Promega). Metabolic activity was measured either by resazurin reduction potential using PrestoBlue (LifeTech) or ATP activity using CellTitre-Glo (Promega). All assays followed manufacturer's instructions. IC50 values were calculated using Prism (version 7.0a, GraphPad).
# When delivering therapeutics into a cell, it is critical that the delivery molecule itself is not cytotoxic. To assess innate cytotoxicity we tested the effects of FPPs alone on cell viability at 24 h (FIG. 6A) and 48 h (FIG. 6B) after addition of peptides. The effects of FPPs on membrane stability of cells was also assessed in a LDH enzymatic assay, measuring release of LDH from cells into surrounding media at 2 h (FIG. 6C) and 24 h (FIG. 6D) after treatment with peptides.
# T47D cells [3] = settings: for IC50: 48 h; for delivery of DPMIα, comparison of 10 μM peptide treatments: FIG. 8B, one-way ANOVA; for effect on T47D cell viability of CPP-delivered DPMIα: 48 h incubation, FIG. 8A
# Description: Cell viability was assessed by resazurin reduction potential after 48 h incubation with peptides. […] Results are representative of 3 independent experiments.
# as §3
# ^DPMIα is a small peptide (SEQ ID NO:105), which when conjugated to cationic CPPs can internalize into cells, bind to MDM2 (acting as a dominant negative peptide) and lift p53 suppression causing indiscriminate cytotoxicity (Liu, supra).
# [4] = tested on: CHO-K1 cells stably-expressing EGFR receptor; test: Bouganin assay: FPP_SpyT conjugated to EGFRAffibody_Bouganin_SpyC toxin, matched CHO-K1 lines (±hEGFR); type: cell-based; settings: 100 nM toxin; 48 h; CHO-K1 EGFR vs CHO-K1
# Description: FIG. 9 FPP compatibility with receptor binding delivery (RBD)-mediated delivery and half-life extension by PASylation. (A) a plot showing percent viability of CHO-K1 cells stably-expressing EGFR receptor or (B) CHO-K1 cells were treated with FPP_SpyT conjugated to EGFRAffybody_Bouganin SpyC (EGRFAffbd_Boug_SpyC) toxin. After 48 h incubation cell viability was assessed by resazurin reduction potential. […] Results are representative of 3 independent experiments. Error bars represent standard deviation from the mean of duplicate samples. **P<0.01, ***P<0.001 by one-way ANOVA with Dunnett's multiple comparison test. (C) T47D cells were treated with FPP_PAP_linker_SpyT with and without conjugation to PAS_SpyC recombinant protein. […] Linkers are Cathepsin B FKFL cleavage motif (BF), Cathepsin B Valine-Citrulline cleavage motif (Ba) and Furin RKKR cleavage motif (Fur). Results are representative of 2 independent experiments. Error bars represent standard deviation from the mean of duplicate samples.
# as §2
# CHO-K1 cells [5] = test: β-Lactamase (BLA) bioassay, CCF2-AM cleavage by flow cytometry; type: cell-based; settings: SpyC-BLA/CPP-SpyT conjugates; comparator TAT-SpyTag conjugate
# Description: CHO-K1 cells (seeded at 1×10^5 cells/well in 24-well plates) were incubated with purified SpyC_BLA (SEQ ID NO:90) and SpyC_BLA_FPP1.1 (SEQ ID NO:91) proteins at […]/5% CO2 for 2 hours. Cells were washed, detached by 5 mins incubation with trypsin, washed, loaded with the β-lactamase substrate CCF2-AM and analysed by Flow Cytometry; intracellular β-lactamase activity caused an emission shift from 510 nm to 450 nm. The percentages of β-lactamase positive cells for each sample were graphed against the concentration of protein added to the cells. […]
# β-Lactamase is a bacterial enzyme that catalyses the opening of β-lactam rings. […] To address this need, β-Lactamase was expressed as C-terminal SpyC fusion, making SpyC-BLA (SEQ ID NO:90). […]
# CCF2-AM (Thermofisher Scientific, Australia) is a Fluorescence Resonance Energy Transfer (FRET) substrate that is enzymatically cleaved by β-Lactamase. […] In the presence of β-Lactamase, the fluorescein moiety of CCF2 is enzymatically cleaved, resulting in the emission wavelength shifting to 447 nm (blue). β-Lactamase activity is quantified by measuring the ratio of blue fluorescence to green fluorescence.
# The cell-penetrating and endosomal escape ability of FPP1.1 (SEQ ID NO:39) and sequence variant SpyC-BLA/CCP-SpyT conjugates was assessed by flow cytometry to determine cytosolic CCF2-AM cleavage by internalized β-Lactamase. […]
# CHO-K1 cells [6] = test: PAP cell viability assay: SpyC_PAP conjugated to CPP_SpyT, resazurin reduction; type: cell-based; settings: FIG. 4A
# Description: as §1, §2
# SpyC-PAP/CPP-SpyT complex IC50s were ranked according to potency to determine impact of changes to primary CPP sequence. Sequence variations positively impacting on potency are retained for further optimization, whereas sequence variations deleterious to potency are excluded, thus establishing sequence activity relationships for the CPP peptide. SpyC_BLA/CPP-SpyT complex median cell fluorescence at 4 μM concentration was ranked according to intensity to determine impact of changes to primary CPP sequence. Sequence variations positively impacting on intensity were retained for further optimization, whereas sequence variations deleterious to intensity were excluded, thus establishing sequence activity relationships for the CPP peptide.
# For the first readout of functional activity we chose the proapoptotic peptide PAP (SEQ ID NO:61; Ellerby et al 1999, Nat Med, 5, 1032-1038) as a functional cargo and expressed it recombinantly, fused to SpyCatcher (SEQ ID NO:83) (abbreviated as “SpyC_PAP” or “SpyC-PAP”; SEQ ID NO:62) to enable subsequent conjugation with synthetic CPP-SpyTag fusion proteins. Mammalian cells were incubated with SpyC_PAP-CPP protein conjugates, which induce apoptosis if successfully delivered into cells. […] As a representative member of the largest cluster of sequences from the screen, FPP1 was selected for additional optimization studies.
compound,measurement,setting,value
C[C@@H](O)[C@H](NC(=O)[C@H](CCCCN)NC(=O)[C@@H]1CCCN1C(=O)[C@H](CCCCN)NC(=O)[C@H](CCCCN)NC(=O)[C@@H]1CCCN1C(=O)[C@H](CCCCN)NC(=O)[C@@H]1CCCN1C(=O)[C@@H]1CCCN1C(=O)[C@H](CCC(N)=O)NC(=O)[C@H](CCCCN)NC(=O)[C@H](CCCCN)NC(=O)[C@H](CCCCN)NC(=O)[C@@H](N)CCCCN)C(=O)N[C@@H](CCC(N)=O)C(=O)N[C@@H](CCC(=O)O)C(=O)N[C@@H](CCCCN)C(=O)N[C@@H](CCCCN)C(=O)N[C@@H](CCCCN)C(=O)N[C@@H](CCCCN)C(=O)N[C@@H](CCC(N)=O)C(=O)N1CCC[C@H]1C(=O)N1CCC[C@H]1C(=O)N[C@@H](CCCCN)C(=O)N1CCC[C@H]1C(=O)N[C@@H](CCCCN)C(=O)N[C@@H](CCCNC(=N)N)C(=O)O [FPP1.1] (H-KKKKQPPKPKKPKTQEKKKKQPPKPKR-OH),IC50,T47D cells [1],8.7 µM
same,"cytotoxicity of peptides alone, cell viability",CHO-K1 cells [2],lack of cytotoxicity
"CC(C)C[C@@H](NC(=O)[C@@H](CC(C)C)NC(=O)[C@@H](CCCCN)NC(=O)[C@@H](CCC(=O)O)NC(=O)[C@@H](CC(C)C)NC(=O)[C@@H](CC(N)=O)NC(=O)[C@@H](C)NC(=O)[C@@H](Cc1ccc(O)cc1)NC(=O)[C@@H](Cc1c[nH]c2ccccc12)NC(=O)[C@@H](CC(N)=O)NC(=O)[C@H](NC(=O)[C@H](CO)NC(=O)[C@H](C)NC(=O)CNC(=O)[C@H](CCCNC(=N)N)NC(=O)[C@H](CCCNC(=N)N)NC(=O)[C@H](CCCNC(=N)N)NC(=O)[C@H](CCC(N)=O)NC(=O)[C@H](CCCNC(=N)N)NC(=O)[C@H](CCCNC(=N)N)NC(=O)[C@H](CCCCN)NC(=O)[C@H](CCCCN)NC(=O)[C@H](CCCNC(=N)N)NC(=O)CN)[C@H](C)O)C(=O)N[C@H](CCCNC(=N)N)C(=O)O [TAT_^DPMIα, GRKKRRQRRRGAStnwyanlekllr, reference compound] (H-GRKKRRQRRRGAS[dT][dN][dW][dY][dA][dN][dL][dE][dK][dL][dL][dR]-OH; N-terminus and C-terminus assumed)",IC50,T47D cells [3],36.6 µM
GRKKRRQRRR (Amino acid sequence of TAT CPP) [reference compound],"cytotoxicity of peptides alone, LDH release (membrane integrity)",CHO-K1 cells [2]; 2 h and 24 h incubation,non-toxic
same,"cytotoxicity of peptides alone, cell viability",CHO-K1 cells [2],non-toxic
same,"delivery of DPMIα, comparison of 10 μM peptide treatments",T47D cells [3],significantly improved compared to DPMIα peptide alone
KKKKQPPKPKKPKTQEKKKKQPPKPKRGASAHIVMVDAYKPTKGASKKKKQPPKPKKPKTQEKKKKQPPKPKR [dimerised FPP1.1],IC50,T47D cells [1],6.3 µM
KTQEKKKKQPPKPKKPKTQEKKKKQPPKPKR (Amino acid sequence of a Sindbis virus capsid-derived CPP (del1746)) [FPP1-del],"delivery of EGFRAffbd_Boug_SpyC toxin, cell viability",[4],significantly improved delivery compared to RBD alone but retains RBD encoded specificity
PKKPKTQEKKKKQPPK (Amino acid sequence of a Sindbis virus capsid-derived CPP (SAR1)) [FPP1-SAR1],delivery of BLA to the cytosol,CHO-K1 cells [5],ineffective in delivering BLA
PLKPKKPKTQEKKKKQPPKPKKPKTQEKKKKQPPKPKR (Amino acid sequence of a Sindbis virus capsid-derived CPP (SVC27)) [FPP1],"potency of FPP-delivered PAP conjugate (decrease in CHO-K1 cell viability), order of potency","CHO-K1 cells [6]; CPP_SpyT conjugated to SpyC_PAP, resazurin",greatest potency
same,cell death caused by SpyC-PAP conjugate,CHO-K1 cells [6]; compared to TAT or Penetratin-delivered SpyC_PAP,significant cell death
same,"delivery of DPMIα, comparison of 10 μM peptide treatments",T47D cells [3],significantly improved delivery compared to TAT
same,effect on T47D cell viability of CPP-delivered DPMIα,T47D cells [3],dose dependent decrease in T47D cell viability
PLKPKKPKTQEKKKKQPPKPKKPKTQEKKKKQPPKPKRGAS[dT][dN][dW][dY][dA][dN][dL][dE][dK][dL][dL][dR] [FPP1_^DPMIα],IC50,T47D cells [3],9.1 µM
same,effect on T47D cell viability of CPP-delivered DPMIα,T47D cells [3],significantly more cytotoxic than ^DPMIα alone
